Assay results reported in patent US10844044B2 (Vanderbilt University, priority 2018, dated 2020).
Like-named read-outs stand apart in the source and are kept apart here.

Columns and labels:
[1] = tested on: MV4:11 human cancer cell lines; assay: Anti-proliferative activity, CellTiter-Glo viability assay, 7 day protocol; assay type: cell-based; settings: Homo sapiens, MV4-11, 168 h, MV4:11 cells, 7 day incubation, read-out: GI50 on cellular proliferation of MV4:11 human cancer cell lines
Summary of the method: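 Luminescent CellTiter-Glo readout after 7-day compound exposure of MV4:11 cells plated at 3600 cells/ml (final DMSO 0.1%). GI50 derived from three biological × three technical replicates, reported as mean ± S.E.M.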

[2] = biological target: WDR5 (Homo sapiens (Human), UniProt P61964); assay: TR-FRET binding assay (displacement of 10mer-Thr-FAM probe from WDR5); settings: read-out: Ki for Inhibition of WDR5 by TR-FRET assay
[3] = TR-FRET, 10mer-Thr-FAM probe, WDR5-His tag 2 nM, pH 7.0

Row | SMILES | GI50 [1] [nM] | Ki [2, 3] [nM] | Ki [2] [nM]
1 | Cc1cc([C@@H](NC(=O)c2cc(Cn3cccc(C)c3=N)cc(-c3cccnc3C(F)(F)F)c2)C2CC2)ccc1F [Example 343, (S)—N-(Cyclopropyl(4-fluoro-3-methylphenyl)methyl)-3-((2-imino-3-methylpyridin-1(2H)-yl)methyl)-5-(2-(trifluoromethyl)pyridin-3-yl)benzamide] | 250 | 0.51 | –
2 | Cc1cc([C@@H](NC(=O)c2cc(CN3CCCC3=N)cc(-c3ccc(F)cc3C#N)c2)C2CC2)ccc1F [Example 333, (S)-2′-Cyano-N-(cyclopropyl(4-fluoro-3-methylphenyl)methyl)-4′-fluoro-5-((2-iminopyrrolidin-1-yl)methyl)-[1,1′-biphenyl]-3-carboxamide] | 520 | 0.39 | –
3 | COc1cc(OC)cc(C(NC(=O)c2cc(Cn3ccn(C)c3=N)cc(-c3ncccc3C(F)(F)F)c2)C2CC2)c1 (centres unmarked) [Example 61, N-(Cyclopropyl(3,5-dimethoxyphenyl)methyl)-3-((2-imino-3-methyl-2,3-dihydro-1H-imidazol-1-yl)methyl)-5-(3-(trifluoromethyl)pyridin-2-yl)benzamide] | 4200 | 2.8 | –
4 | Cc1cc([C@@H](NC(=O)c2cc(CN3CCCC3=N)cc(-c3cn(C(C)C)nc3C(F)(F)F)c2)C2CC2)ccc1F [Example 336, (S)—N-(Cyclopropyl(4-fluoro-3-methylphenyl)methyl)-3-((2-iminopyrrolidin-1 yl)methyl)-5-(1-isopropyl-3-(trifluoromethyl)-1H-pyrazol-4-yl)benzamide] | < 100 | < 0.1 | –
5 | COc1cc(CNC(=O)c2cc(Cn3ccoc3=N)cc(-c3ncc(F)cc3C)c2)cc(OC)c1 [Example 238, N-(3,5-Dimethoxybenzyl)-3-(5-fluoro-3-methylpyridin-2-yl)-5-((2-iminooxazol-3(2H)-yl)methyl)benzamide] | 3800 | – | 2.9
6 | Cc1ccnc([C@@H](NC(=O)c2cc(Cn3ccn(C)c3=N)cc(-c3ccc(F)cc3C(F)(F)F)c2F)C2CC2)c1 [Example 120, (S)—N-(Cyclopropyl(4-methylpyridin-2-yl)methyl)-2,4′-difluoro-5-((2-imino-3-methyl-2,3-dihydro-1H-imidazol-1-yl)methyl)-2′-(trifluoromethyl)-[1,1′-biphenyl]-3-carboxamide] | 220 | < 0.1 | –
7 | COc1ccnc(CNC(=O)c2ccc(F)c(Cn3ccn(C)c3=N)c2)c1 [Example 366, 4-Fluoro-3-((2-imino-3-methyl-2,3-dihydro-1H-imidazol-1-yl)methyl)-N-((4-methoxypyridin-2-yl)methyl)benzamide] | 30000 | 13 | –
8 | Cc1cc([C@@H](NC(=O)c2cc(Cn3ccn(C)c3=N)cc(-c3ccc(F)cc3C(F)(F)F)n2)C2CC2)ccc1F [Example 107, (S)—N-(Cyclopropyl(4-fluoro-3-methylphenyl)methyl)-6-(4-fluoro-2-(trifluoromethyl)phenyl)-4-((2-imino-3-methyl-2,3-dihydro-1H-imidazol-1-yl)methyl)picolinamide] | 950 | 0.23 | –
9 | Cc1ccnc([C@@H](NC(=O)c2cc(Cn3ccn(C)c3=N)cc(-c3ccc(F)cc3C)c2)C2CC2)c1 [Example 91, (S)—N-(Cyclopropyl(4-methylpyridin-2-yl)methyl)-4′-fluoro-5-((2-imino-3-methyl-2,3-dihydro-1H-imidazol-1-yl)methyl)-2′-methyl-[1,1′-biphenyl]-3-carboxamide] | 210 | < 0.1 | –
10 | Cc1ccnc(C(NC(=O)c2cc(Cn3ccn(C)c3=N)cc(-c3ncc(F)cc3C)c2)C2CC2)c1 (centres unmarked) [Example 69] | 5100 | 2.4 | –
11 | Cc1cc(C)nc(CNC(=O)c2cc(Cn3ccn(C)c3=N)cc(-c3cccnc3C)c2)n1 [Example 42, N-((4,6-Dimethylpyrimidin-2-yl)methyl)-3-((2-imino-3-methyl-2,3-dihydro-1H-imidazol-1-yl)methyl)-5-(2-methylpyridin-3-yl)benzamide] | 28000 | 10 | –
12 | Cc1cc([C@@H](NC(=O)c2cc(Cn3ccn(C)c3=N)cc(-c3ccc(F)cc3C#N)c2)C2CC2)ccc1F [Example 185, (S)-2′-Cyano-N-(cyclopropyl(4-fluoro-3-methylphenyl)methyl)-4′-fluoro-5-((2-imino-3-methyl-2,3-dihydro-1H-imidazol-1-yl)methyl)-[1,1′-biphenyl]-3-carboxamide] | 610 | < 0.1 | –
13 | CCn1cc(-c2cc(CN3CCOC3=N)cc(C(=O)N[C@H](c3ccc(Cl)c(Cl)c3)C3CC3)c2)c(C(F)(F)F)n1 [Example 281, (S)—N-(Cyclopropyl(3,4-dichlorophenyl)methyl)-3-(1-ethyl-3-(trifluoromethyl)-1H-pyrazol-4-yl)-5-((2-iminooxazolidin-3-yl)methyl)benzamide] | < 100 | < 0.1 | –
14 | CCn1cc(-c2cc(Cn3ccoc3=N)cc(C(=O)NCc3ccc(F)c(C)c3)c2)c(C(F)(F)F)n1 [Example 294, 3-(1-Ethyl-3-(trifluoromethyl)-1H-pyrazol-4-yl)-N-(4-fluoro-3-methylbenzyl)-5-((2-iminooxazol-3(2H)-yl)methyl)benzamide] | < 100 | – | < 0.1
15 | Cc1cc([C@@H](NC(=O)c2cc(Cn3ccn(C)c3=N)cc(-c3cccnc3OC(F)F)c2)C2CC2)ccc1F [Example 127, (S)—N-(Cyclopropyl(4-fluoro-3-methylphenyl)methyl)-3-(2-(difluoromethoxy)pyridin-3-yl)-5-((2-imino-3-methyl-2,3-dihydro-1H-imidazol-1-yl)methyl)benzamide] | 730 | 0.21 | –
16 | CCn1ccn(Cc2cc(C(=O)NCc3cc(OC)cc(OC)c3)cc(-c3ccc(F)cc3C)c2)c1=N [Example 116, N-(3,5-Dimethoxybenzyl)-5-((3-ethyl-2-imino-2,3-dihydro-1H-imidazol-1-yl)methyl)-4′-fluoro-2′-methyl-[1,1′-biphenyl]-3-carboxamide] | 570 | 0.4 | –
17 | COc1cc([C@@H](NC(=O)c2cc(Cn3ccsc3=N)cc(-c3cn(C)nc3C(F)(F)F)c2)C2CC2)ccc1F [Example 327, (S)—N-(Cyclopropyl(4-fluoro-3-methoxyphenyl)methyl)-3-((2-iminothiazol-3(2H)-yl)methyl)-5-(1-methyl-3-(trifluoromethyl)-1H-pyrazol-4-yl)benzamide] | < 100 | < 0.1 | –
18 | Cc1cccc(C2(NC(=O)c3cc(Cn4ccn(C)c4=N)cc(-c4cn(C)nc4C(F)(F)F)c3)CCC2)c1 [Example 220, 3-((2-Imino-3-methyl-2,3-dihydro-1H-imidazol-1-yl)methyl)-5-(1-methyl-3-(trifluoromethyl)-1H-pyrazol-4-yl)-N-(1-(m-tolyl)cyclobutyl)benzamide] | 220 | < 0.1 | –
19 | CCn1cc(-c2cc(CN3CCCC3=N)cc(C(=O)N[C@H](c3ccc(F)c(Cl)c3)C3CC3)c2)c(C(F)(F)F)n1 [Example 338, (S)—N-((3-Chloro-4-fluorophenyl)(cyclopropyl)methyl)-3-(1-ethyl-3-(trifluoromethyl)-1H-pyrazol-4-yl)-5-((2-iminopyrrolidin-1-yl)methyl)benzamide] | < 100 | < 0.1 | –
